ChEMBL document CHEMBL6092141, “Discovery of a proteolysis targeting chimera (PROTAC) as a potent regulator of FOXP3” (2024)
Blank lines part the entries; values can stand above or below the compound they belong to. Activity calls are given as the source filed them. The rule behind the calls is not given here. Residues, ends and D or L forms follow the SMILES beside them. *: point of attachment. X1 = Cc1ncsc1-c1ccc(CNC(=O)[C@@H]2C[C@@H](O)CN2C(=O)[C@@H](NC(=O)COCCOCCNC(=O)CCCCCc2cn(CCCC(=O)*)nn2)C(C)(C)C)cc1; X2 = Cc1ncsc1-c1ccc(CNC(=O)[C@@H]2C[C@@H](O)CN2C(=O)[C@@H](NC(=O)CCOCCOCCc2cn(CCCC(=O)*)nn2)C(C)(C)C)cc1; X3 = Cc1ncsc1-c1ccc(CNC(=O)[C@@H]2C[C@@H](O)CN2C(=O)[C@@H](NC(=O)CCCCCc2cn(CCCC(=O)*)nn2)C(C)(C)C)cc1

Columns and labels:
[1] = tested on: HEK293T; experiment: Inhibition of HA-tagged Foxp3 (unknown origin) nuclear translocation transfected in a HEK293T cells at 50 to 100 uM incubated for 24 hrs by DAPI staining based confocal microscopic analysis; type: cell-based; details: Homo sapiens, dose 50-100 µM
[2] = target: T1, von Hippel-Lindau disease tumor suppressor/Forkhead box protein P3 (Homo sapiens) (UniProt P40337+Q9BZS1); experiment: PROTAC activity at VHL/Foxp3 (unknown origin) transfected in HEK293T cells assessed as induction of Foxp3 degradation by measuring reduction in protein level at 500 to 1000 nM incubated for 24 hrs by Western blot analysis; type: cell-based; details: dose 500-1000 nM
T1 sequence (P40337 whole entry, looked up): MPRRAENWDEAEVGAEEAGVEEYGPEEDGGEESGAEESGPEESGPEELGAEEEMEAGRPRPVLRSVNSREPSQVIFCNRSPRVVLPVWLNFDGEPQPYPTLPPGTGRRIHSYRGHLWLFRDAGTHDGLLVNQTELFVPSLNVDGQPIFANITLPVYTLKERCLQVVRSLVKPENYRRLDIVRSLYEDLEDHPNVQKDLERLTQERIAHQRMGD
T1 sequence (Q9BZS1 whole entry, looked up): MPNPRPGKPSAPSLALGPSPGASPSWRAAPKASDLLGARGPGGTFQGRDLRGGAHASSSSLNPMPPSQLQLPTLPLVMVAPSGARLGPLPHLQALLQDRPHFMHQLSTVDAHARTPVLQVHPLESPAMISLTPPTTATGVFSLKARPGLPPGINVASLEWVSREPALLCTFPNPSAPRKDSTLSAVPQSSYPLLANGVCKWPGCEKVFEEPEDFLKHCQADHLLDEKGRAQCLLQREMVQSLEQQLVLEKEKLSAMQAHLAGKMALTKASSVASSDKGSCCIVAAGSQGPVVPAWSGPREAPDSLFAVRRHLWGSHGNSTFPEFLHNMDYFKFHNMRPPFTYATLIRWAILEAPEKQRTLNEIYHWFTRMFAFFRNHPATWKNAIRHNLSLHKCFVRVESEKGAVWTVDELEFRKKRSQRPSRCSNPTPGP

[3] = tested on: HeLa; experiment: Inhibition of HA-tagged Foxp3 (unknown origin) nuclear translocation transfected in human HeLa cells at 1 uM incubated for 24 hrs by DAPI staining based confocal microscopic analysis; type: cell-based
[4] = target: T1, von Hippel-Lindau disease tumor suppressor/Forkhead box protein P3 (Homo sapiens); experiment: PROTAC activity at VHL/Foxp3 (unknown origin) transfected in HEK293T cells assessed as induction of Foxp3 degradation by measuring reduction in protein level at 1 uM measured after 24 to 48 hrs by Western blot analysis; type: cell-based; details: time 24-48 hrs
[5] = target: T1, von Hippel-Lindau disease tumor suppressor/Forkhead box protein P3 (Homo sapiens); experiment: PROTAC activity at VHL/Foxp3 (unknown origin) transfected in HEK293T cells assessed as induction of Foxp3 degradation by measuring reduction in protein level at 3 uM incubated for 48 hrs in presence of MG132 by Western blot analysis; type: cell-based
[6] = tested on: HEK293T; experiment: Inhibition of HA-tagged Foxp3 (unknown origin) nuclear translocation transfected in a HEK293T cells at 1 to 3 uM incubated for 24 hrs by DAPI staining based confocal microscopic analysis; type: cell-based; details: Homo sapiens, dose 1-3 µM
[7] = Immunomodulatory activity in anti-CD3/CD28-induced C57BL/6 mouse CD4+ T cells isolated from spleen/lymph nodes assessed as reduction in foxp3+ CD4+ IL2/TGF-beta induced T regulatory cells at 1 uM incubated for 48 hrs by fluorescence activated cell sorting analysis (reference value: 6.56 %); type: functional; design: scale not given: the % may be the effect or the level left
[8] = Immunomodulatory activity in anti-CD3/CD28-induced C57BL/6 mouse CD4+ T cells isolated from spleen/lymph nodes assessed as reduction in foxp3+ CD4+ IL2/TGF-beta induced T regulatory cells at 2 uM incubated for 48 hrs by fluorescence activated cell sorting analysis (reference value: 6.56 %); type: functional; design: scale not given: the % may be the effect or the level left
[9] = Immunomodulatory activity in anti-CD3/CD28-induced C57BL/6 mouse CD4+ T cells isolated from spleen/lymph nodes assessed as reduction in foxp3+ CD4+ IL2/TGF-beta induced T regulatory cells at 4 uM incubated for 48 hrs by fluorescence activated cell sorting analysis (reference value: 6.56 %); type: functional; design: scale not given: the % may be the effect or the level left
[10] = Immunomodulatory activity in anti-CD3/CD28-induced C57BL/6 mouse CD4+ T cells isolated from spleen/lymph nodes assessed as reduction in foxp3+ CD4+ IL2/TGF-beta induced T regulatory cells at 1 uM incubated for 72 hrs by fluorescence activated cell sorting analysis (reference value: 32.7 %); type: functional; design: scale not given: the % may be the effect or the level left
[11] = Immunomodulatory activity in anti-CD3/CD28-induced C57BL/6 mouse CD4+ T cells isolated from spleen/lymph nodes assessed as reduction in foxp3+ CD4+ IL2/TGF-beta induced T regulatory cells at 2 uM incubated for 72 hrs by fluorescence activated cell sorting analysis (reference value: 32.7 %); type: functional; design: scale not given: the % may be the effect or the level left
[12] = Immunomodulatory activity in anti-CD3/CD28-induced C57BL/6 mouse CD4+ T cells isolated from spleen/lymph nodes assessed as reduction in foxp3+ CD4+ IL2/TGF-beta induced T regulatory cells at 3 uM incubated for 72 hrs by fluorescence activated cell sorting analysis (reference value: 32.7 %); type: functional; design: scale not given: the % may be the effect or the level left
[13] = Immunomodulatory activity in anti-CD3/CD28-induced C57BL/6 mouse CD4+ T cells isolated from spleen/lymph nodes assessed as reduction in foxp3+ CD4+ IL2/TGF-beta induced T regulatory cells at 4 uM incubated for 72 hrs by fluorescence activated cell sorting analysis (reference value: 32.7 %); type: functional; design: scale not given: the % may be the effect or the level left
[14] = tested on: CD4+ T cell; experiment: Immunomodulatory activity in anti-CD3/CD28-induced C57BL/6 mouse CD4+ T cells isolated from spleen/lymph nodes assessed as reduction in Foxp3 mRNA expression in IL2/TGF-beta induced T regulatory cells measured after 72 hrs by RT-qPCR analysis; type: functional, cell-based
[15] = tested on: CD4+ T cell; experiment: Immunomodulatory activity in anti-CD3/CD28-induced C57BL/6 mouse CD4+ T cells isolated from spleen/lymph nodes assessed as increase in IL2 mRNA expression in IL2/TGF-beta induced T regulatory cells measured after 72 hrs by RT-qPCR analysis; type: functional, cell-based
[16] = tested on: CD4+ T cell; experiment: Immunomodulatory activity in anti-CD3/CD28-induced C57BL/6 mouse CD4+ T cells isolated from spleen/lymph nodes assessed as increase in IFN-gamma mRNA expression in IL2/TGF-beta induced T regulatory cells measured after 72 hrs by RT-qPCR analysis; type: functional, cell-based
[17] = tested on: CD4+ T cell; experiment: Immunomodulatory activity in anti-CD3/CD28-induced C57BL/6 mouse CD4+ T cells isolated from spleen/lymph nodes assessed as reduction in Foxp3 protein expression in IL2/TGF-beta induced T regulatory cells at 1 to 4 uM measured after 72 hrs by Western blot analysis; type: functional, cell-based; details: dose 1-4 µM
[18] = target: T1, von Hippel-Lindau disease tumor suppressor/Forkhead box protein P3 (Homo sapiens); experiment: PROTAC activity at VHL/Foxp3 (unknown origin) transfected in HEK293T cells assessed as induction of Foxp3 degradation by measuring reduction in protein level at 10 to 1000 nM incubated for 24 hrs by Western blot analysis; type: cell-based; details: dose 10-1000 nM

Compound: H-RDFQSFRKMWPFFAM-OH
inhibition [1]: Active

Activity [2]: Active
Activity [4]: Active
Activity [5]: inactive
Compound: CSCC[C@H](NC(=O)[C@H](C)NC(=O)[C@H](Cc1ccccc1)NC(=O)[C@H](Cc1ccccc1)NC(=O)[C@@H]1CCCN1C(=O)[C@H](Cc1c[nH]c2ccccc12)NC(=O)[C@H](CCSC)NC(=O)[C@H](CCCCN)NC(=O)[C@H](CCCNC(=N)N)NC(=O)[C@H](Cc1ccccc1)NC(=O)[C@H](CO)NC(=O)[C@H](CCC(N)=O)NC(=O)[C@H](Cc1ccccc1)NC(=O)[C@H](CC(=O)O)NC(=O)[C@H](CCCNC(=N)N)NC(=O)CCCn1cc(CCCCCC(=O)NCCOCCOCC(=O)N[C@H](C(=O)N2C[C@H](O)C[C@H]2C(=O)NCc2ccc(-c3scnc3C)cc2)C(C)(C)C)nn1)C(N)=O (X1-RDFQSFRKMWPFFAM-NH2)
inhibition [3]: Active
inhibition [6]: Active; Comparable Effect To 100 Um Of P60 Peptide Observed At 1 Um
Activity [7]: 6.08%
Activity [8]: 5.03%
Activity [9]: 4.87%
Activity [10]: 28.8%
Activity [11]: 25.8%
Activity [12]: 20.2%
Activity [13]: 15.6%
Activity [14]: Active
Activity [15]: Active
Activity [16]: Active
Activity [17]: Active

Activity [18]: inactive
Compound: CSCC[C@H](NC(=O)[C@H](C)NC(=O)[C@H](Cc1ccccc1)NC(=O)[C@H](Cc1ccccc1)NC(=O)[C@@H]1CCCN1C(=O)[C@H](Cc1c[nH]c2ccccc12)NC(=O)[C@H](CCSC)NC(=O)[C@H](CCCCN)NC(=O)[C@H](CCCNC(=N)N)NC(=O)[C@H](Cc1ccccc1)NC(=O)[C@H](CO)NC(=O)[C@H](CCC(N)=O)NC(=O)[C@H](Cc1ccccc1)NC(=O)[C@H](CC(=O)O)NC(=O)[C@H](CCCNC(=N)N)NC(=O)CCCn1cc(CCCCCC(=O)N[C@H](C(=O)N2C[C@H](O)C[C@H]2C(=O)NCc2ccc(-c3scnc3C)cc2)C(C)(C)C)nn1)C(N)=O (X3-RDFQSFRKMWPFFAM-NH2)
inhibition [3]: inactive

Activity [18]: inactive
Compound: CSCC[C@H](NC(=O)[C@H](C)NC(=O)[C@H](Cc1ccccc1)NC(=O)[C@H](Cc1ccccc1)NC(=O)[C@@H]1CCCN1C(=O)[C@H](Cc1c[nH]c2ccccc12)NC(=O)[C@H](CCSC)NC(=O)[C@H](CCCCN)NC(=O)[C@H](CCCNC(=N)N)NC(=O)[C@H](Cc1ccccc1)NC(=O)[C@H](CO)NC(=O)[C@H](CCC(N)=O)NC(=O)[C@H](Cc1ccccc1)NC(=O)[C@H](CC(=O)O)NC(=O)[C@H](CCCNC(=N)N)NC(=O)CCCn1cc(CCOCCOCCC(=O)N[C@H](C(=O)N2C[C@H](O)C[C@H]2C(=O)NCc2ccc(-c3scnc3C)cc2)C(C)(C)C)nn1)C(N)=O (X2-RDFQSFRKMWPFFAM-NH2)
inhibition [3]: inactive
